From patent US9561231B2 (AbbVie Inc., priority 2012, dated 2017)

Assays:
[1] = target: T1, first (BD1: amino acids K57-E168) bromodomain of BRD4 (Homo sapiens, UniProt O60885); assay: TR-FRET bromodomain binding assay, BRD4 BD1; conditions: TR-FRET assay protocol (A-G, compound concentration range); Ki calculated from IC50, probe Kd and probe concentration; read-out: TR-FRET Binding Ki: BRD4 (BDI_K57-E168)
T1 construct: His-tagged first (BD1: amino acids K57-E168)
Outline: (§1)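 His-tagged BRD4 bromodomain competed against an Alexa647-labeled BET-inhibitor probe by TR-FRET in 20 mM sodium phosphate pH 6.0, 50 mM NaCl, 1 mM EDTA, 0.01% Triton X-100, 1 mM DTT.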

[2] = target: T2, second (BD2: amino acids E352-E168) bromodomain of BRD4 (Homo sapiens, UniProt O60885); assay: TR-FRET bromodomain binding assay, BRD4 BD2; conditions: TR-FRET assay protocol (A-G, compound concentration range); Ki calculated from IC50, probe Kd and probe concentration; read-out: TR-FRET Binding Ki: BRD4 (BDII_E352-M457)
T2 construct: protocol
Outline: as §1

Ki [1] [µM] | Ki [2] [µM] | Compound
6.84 | 1.36 | Cn1nc(-c2ccccc2Cc2ccccc2)ccc1=O [Example 222, 6-(2-benzylphenyl)-2-methylpyridazin-3(2H)-one]
0.324 | 3.27 | Cn1cc(-c2cc(Nc3ccccn3)ccc2Oc2ccccc2)ccc1=O [Example 254, 1-methyl-5-[2-phenoxy-5-(pyridin-2-ylamino)phenyl]pyridin-2(1H)-one]
0.246 | 0.204 | Cn1cc(-c2cc(NS(C)(=O)=O)ccc2Oc2ccc(F)cc2F)c(Cl)cc1=O [Example 269, N-[3-(4-chloro-1-methyl-6-oxo-1,6-dihydropyridin-3-yl)-4-(2,4-difluorophenoxy)phenyl]methanesulfonamide]
0.916 | 0.57 | CNC(=O)c1cc(=O)n(C)cc1-c1cc(NS(C)(=O)=O)ccc1Oc1ccc(F)cc1F [Example 276, 5-{2-(2,4-difluorophenoxy)-5-[(methylsulfonyl)amino]phenyl}-N,1-dimethyl-2-oxo-1,2-dihydropyridine-4-carboxamide]
0.0204 | 0.0997 | Cn1cc(-c2cc(NS(C)(=O)=O)ccc2Oc2ccc(F)cc2F)cc(Cl)c1=O [Example 282, N-[3-(5-chloro-1-methyl-6-oxo-1,6-dihydropyridin-3-yl)-4-(2,4-difluorophenoxy)phenyl]methanesulfonamide]
0.19 | 0.551 | CCS(=O)(=O)Nc1ccc(Oc2ccc(F)cc2F)c(-c2cn(C)c(=O)cc2OCCN(C)C)c1 [Example 288, N-(4-(2,4-difluorophenoxy)-3-(4-(2-(dimethylamino)ethoxy)-1-methyl-6-oxo-1,6-dihydropyridin-3-yl)phenyl)ethanesulfonamide]
0.275 | 0.093 | CCOc1cc(=O)n(C)cc1-c1cc(NC(=O)C2CCN(c3ccccc3)C2=O)ccc1Oc1ccc(F)cc1F (stereo not shown) [Example 295, N-[4-(2,4-difluorophenoxy)-3-(4-ethoxy-1-methyl-6-oxo-1,6-dihydropyridin-3-yl)phenyl]-2-oxo-1-phenylpyrrolidine-3-carboxamide]
0.195 | 0.104 | CCOc1cc(=O)n(C)cc1-c1cc(NC(=O)CC(C)(C)C)ccc1Oc1ccc(F)cc1F [Example 296, N-[4-(2,4-difluorophenoxy)-3-(4-ethoxy-1-methyl-6-oxo-1,6-dihydropyridin-3-yl)phenyl]-3,3-dimethylbutanamide]
0.149 | 0.0352 | CCOc1cc(=O)n(C)cc1-c1cc(NC(=O)C2(c3ccccc3)CC2)ccc1Oc1ccc(F)cc1F [Example 299, N-[4-(2,4-difluorophenoxy)-3-(4-ethoxy-1-methyl-6-oxo-1,6-dihydropyridin-3-yl)phenyl]-1-phenylcyclopropanecarboxamide]
0.0618 | 0.0556 | CCOc1cc(=O)n(C)cc1-c1cc(NC(=O)c2ccc(OC(C)C)cc2)ccc1Oc1ccc(F)cc1F [Example 301, N-[4-(2,4-difluorophenoxy)-3-(4-ethoxy-1-methyl-6-oxo-1,6-dihydropyridin-3-yl)phenyl]-4-(propan-2-yloxy)benzamide]
0.209 | 0.0472 | CCOc1cc(=O)n(C)cc1-c1cc(NC(=O)c2ccccc2CCc2ccccc2)ccc1Oc1ccc(F)cc1F [Example 302, N-[4-(2,4-difluorophenoxy)-3-(4-ethoxy-1-methyl-6-oxo-1,6-dihydropyridin-3-yl)phenyl]-2-(2-phenylethyl)benzamide]
0.233 | 0.201 | CCOc1cc(=O)n(C)cc1-c1cc(NC(=O)c2ccc(N(CC)CC)cc2)ccc1Oc1ccc(F)cc1F [Example 303, 4-(diethylamino)-N-[4-(2,4-difluorophenoxy)-3-(4-ethoxy-1-methyl-6-oxo-1,6-dihydropyridin-3-yl)phenyl]benzamide]
0.195 | 0.359 | CCOc1cc(=O)n(C)cc1-c1cc(NC(=O)c2ccc(-c3ccccc3)cc2)ccc1Oc1ccc(F)cc1F [Example 304, N-[4-(2,4-difluorophenoxy)-3-(4-ethoxy-1-methyl-6-oxo-1,6-dihydropyridin-3-yl)phenyl]biphenyl-4-carboxamide]
0.557 | 0.271 | CCOc1cc(=O)n(C)cc1-c1cc(NCC(C)(C)C)ccc1Oc1ccc(F)cc1F [Example 305, 5-{2-(2,4-difluorophenoxy)-5-[(2,2-dimethylpropyl)amino]phenyl}-4-ethoxy-1-methylpyridin-2(1H)-one]
0.542 | 0.349 | CCOc1cc(=O)n(C)cc1-c1cc(NCCC(C)(C)C)ccc1Oc1ccc(F)cc1F [Example 306, 5-{2-(2,4-difluorophenoxy)-5-[(3,3-dimethylbutyl)amino]phenyl}-4-ethoxy-1-methylpyridin-2(1H)-one]
0.0949 | 0.0416 | CCOc1cc(=O)n(C)cc1-c1cc(NS(=O)(=O)c2ccc(S(C)(=O)=O)cc2)ccc1Oc1ccc(F)cc1F [Example 307, N-[4-(2,4-difluorophenoxy)-3-(4-ethoxy-1-methyl-6-oxo-1,6-dihydropyridin-3-yl)phenyl]-4-(methylsulfonyl)benzenesulfonamide]
0.318 | 0.0659 | CCOc1cc(=O)n(C)cc1-c1cc(NS(=O)(=O)c2ccc(OC(F)(F)F)cc2)ccc1Oc1ccc(F)cc1F [Example 308, N-[4-(2,4-difluorophenoxy)-3-(4-ethoxy-1-methyl-6-oxo-1,6-dihydropyridin-3-yl)phenyl]-4-(trifluoromethoxy)benzenesulfonamide]
0.359 | 0.151 | CCOc1cc(=O)n(C)cc1-c1cc(NS(=O)(=O)c2ccc(-c3ccccc3)cc2)ccc1Oc1ccc(F)cc1F [Example 309, N-[4-(2,4-difluorophenoxy)-3-(4-ethoxy-1-methyl-6-oxo-1,6-dihydropyridin-3-yl)phenyl]biphenyl-4-sulfonamide]
0.2 | 0.0389 | CCOc1cc(=O)n(C)cc1-c1cc(NS(=O)(=O)C[C@]23CC[C@H](CC2=O)C3(C)C)ccc1Oc1ccc(F)cc1F [Example 310, N-[4-(2,4-difluorophenoxy)-3-(4-ethoxy-1-methyl-6-oxo-1,6-dihydropyridin-3-yl)phenyl]-1-[(1S,4R)-7,7-dimethyl-2-oxobicyclo[2.2.1]hept-1-yl]methanesulfonamide]
0.353 | 2.15 | Cc1cc(-c2ccc(-c3ccc(=O)n(C)c3)c(OCC3CC3)c2)[nH]n1 [Example 312, 5-[2-(cyclopropylmethoxy)-4-(3-methyl-1H-pyrazol-5-yl)phenyl]-1-methylpyridin-2(1H)-one]
0.642 | 0.229 | CCS(=O)(=O)c1ccc(Oc2ccccc2C#CCO)c(-c2cn(C)c(=O)cc2Cl)c1 [Example 314, 4-chloro-5-{5-(ethylsulfonyl)-2-[2-(3-hydroxyprop-1-yn-1-yl)phenoxy]phenyl}-1-methylpyridin-2(1H)-one]
0.377 | 0.182 | CCS(=O)(=O)c1ccc(Oc2ccc(F)cc2F)c(-c2cn(C)c(=O)cc2Oc2ccc(F)cc2F)c1 [Example 317, 4-(2,4-difluorophenoxy)-5-[2-(2,4-difluorophenoxy)-5-(ethylsulfonyl)phenyl]-1-methylpyridin-2(1H)-one]
0.68 | 1.11 | CCO/C=C/c1cc(=O)n(C)cc1-c1cc(S(C)(=O)=O)ccc1NCC1CC1 [Example 327, 5-{2-[(cyclopropylmethyl)amino]-5-(methylsulfonyl)phenyl}-4-[(E)-2-ethoxyethenyl]-1-methylpyridin-2(1H)-one]
0.164 | 0.551 | CCS(=O)(=O)Nc1ccc(Oc2ccc(F)cc2F)c(-c2cn(C)c(=O)cc2-c2ccccc2O)c1 [Example 331, N-{4-(2,4-difluorophenoxy)-3-[4-(2-hydroxyphenyl)-1-methyl-6-oxo-1,6-dihydropyridin-3-yl]phenyl}ethanesulfonamide]
1.01 | 0.205 | CCS(=O)(=O)Nc1ccc(Oc2ccc(F)cc2F)c(-c2cn(C)c(=O)cc2-c2cscc2C=O)c1 [Example 332, N-{4-(2,4-difluorophenoxy)-3-[4-(4-formylthiophen-3-yl)-1-methyl-6-oxo-1,6-dihydropyridin-3-yl]phenyl}ethanesulfonamide]
0.611 | 1.83 | CCO/C=C\c1cc(=O)n(C)cc1-c1cc(S(C)(=O)=O)ccc1NCC1CC1 [Example 337, 5-{2-[(cyclopropylmethyl)amino]-5-(methylsulfonyl)phenyl}-4-[(Z)-2-ethoxyethenyl]-1-methylpyridin-2(1H)-one]
0.114 | 0.702 | CCOC(=O)Nc1cc(-c2cc(S(=O)(=O)CC)ccc2OCC2CC2)cn(C)c1=O [Example 338, ethyl{5-[2-(cyclopropylmethoxy)-5-(ethylsulfonyl)phenyl]-1-methyl-2-oxo-1,2-dihydropyridin-3-yl}carbamate]
0.172 | 0.971 | CCS(=O)(=O)c1ccc(OCC2CC2)c(-c2cc(NS(C)(=O)=O)c(=O)n(C)c2)c1 [Example 339, N-{5-[2-(cyclopropylmethoxy)-5-(ethylsulfonyl)phenyl]-1-methyl-2-oxo-1,2-dihydropyridin-3-yl}methanesulfonamide]

Compound | Ki [1] [µM] | Ki [2] [µM]
CCS(=O)(=O)Nc1ccc(Oc2ccc(OC3CCN(C(=O)OC(C)(C)C)CC3)cc2F)c(-c2cn(C)c(=O)cc2OC2CCN(C(=O)OC(C)(C)C)CC2)c1 [Example 320, tert-butyl 4-[(5-{2-(4-{[1-(tert-butoxycarbonyl)piperidin-4-yl]oxy}-2-fluorophenoxy)-5-[(ethylsulfonyl)amino]phenyl}-1-methyl-2-oxo-1,2-dihydropyridin-4-yl)oxy]piperidine-1-carboxylate] | > 2.38 | 0.275
